The values below come from ChEMBL document CHEMBL1142828, “Trypanocidal activity of (-)-cubebin derivatives against free amastigote forms of Trypanosoma cruzi” (Bioorg Med Chem Lett, 2005).

SMILES strings stand for the structures.

A word on the IC50: it is the concentration needed to halve the response being measured. Read a low IC50 as greater potency.

Assay [1] concerns Trypanosoma cruzi. In words: Trypanocidal activity against amastigote forms of Y strain of Trypanosoma cruzi. The format is functional, organism-based.
Assay [2] deals with Trypanosoma cruzi. The experiment in a line: Percentage delyse against amastigote forms of Y strain of Trypanosoma cruzi at 2 uM. It is filed as functional.
Assay [3] deals with Trypanosoma cruzi. The experiment in a line: Percentage delyse against amastigote forms of Y strain of Trypanosoma cruzi at 0.5 uM. The format is functional.
Assay [4] deals with Trypanosoma cruzi. The experiment in a line: Percentage delyse against amastigote forms of Y strain of Trypanosoma cruzi at 32 uM. It is filed as functional.
For assay [5], the system named is Trypanosoma cruzi. The experiment in a line: Percentage delyse against amastigote forms of Y strain of Trypanosoma cruzi at 8 uM. The format is functional.

Regarding `O=C1OC[C@H](Cc2ccc3c(c2)OCO3)[C@@H]1Cc1ccc2c(c1)OCO2`, the IC50 in assay [1] was 0.7 µM. Besides, the Delyse in assay [2] was determined as 57%; in assay [3], 47.6%; in assay [4], 63.6%; in assay [5] it was 57.6%.
The corresponding values for `CC(=O)OC1OC[C@H](Cc2ccc3c(c2)OCO3)[C@@H]1Cc1ccc2c(c1)OCO2` (stereo not given in full) are roughly 15000 µM, 26%, 14.5%, 26.4% and 29%.
In assay [1], `CN(C)CCOC1OC[C@H](Cc2ccc3c(c2)OCO3)[C@@H]1Cc1ccc2c(c1)OCO2` (stereo not given in full) yielded an IC50 of 4.7 µM. The Delyse was 55.4% in assay [2], 33.6% in assay [3], 57.8% in assay [4] and 50.8% in assay [5].
The like results for `c1ccc(COC2OC[C@H](Cc3ccc4c(c3)OCO4)[C@@H]2Cc2ccc3c(c2)OCO3)cc1` (stereo not given in full) were, in that order, 5.7 µM, 38%, 37%, 68.8% and 46.8%.
The corresponding values for `O=C1OC[C@H](Cc2cc3c(cc2[N+](=O)[O-])OCO3)[C@@H]1Cc1cc2c(cc1[N+](=O)[O-])OCO2` are 95.3 µM, 48.7%, 34.6%, 48.5% and 38.9%.
The corresponding values for `O=C(Cn1ccnc1[N+](=O)[O-])NCc1ccccc1` [BENZNIDAZOLE] are 0.8 µM, 67%, 38.4%, 68% and 69%.
